Literature values, collected in patent US11773445B1, “Diagnostic methods” (GRIFFITH UNIVERSITY, priority 2015, dated 2023).

Conditions: CFS patients; multiple Rituximab infusions

For “Rituximab: drug given as multiple infusions to CFS patients in a cited study; anti-CD20 intervention”, the patients responded is listed as 15 of 25.
